Measured values from ChEMBL document CHEMBL3217534, “Glyco-Phospho-Glycero Ether Lipids (GPGEL): synthesis and evaluation as small conductance Ca2+-activated K+ channel (SK3) inhibitors” (Medchemcomm, 2012).
In brackets after ≈: the same amount, converted by molar mass. Activity calls are given as the source filed them. The rule behind the calls is not given here.

Assays:
[1] = molecular target: Small conductance calcium-activated potassium channel protein 3 (Rattus norvegicus) (UniProt P70605); assay: Inhibition of recombinant rat SK3 expressed in HEK293T cells assessed as inhibition of cell migration at 100 nM after 15 hrs by DAPI staining; type: cell-based; conditions: HEK-293T
Chain of Small conductance calcium-activated potassium channel protein 3 (Rattus norvegicus) (P70605 whole entry): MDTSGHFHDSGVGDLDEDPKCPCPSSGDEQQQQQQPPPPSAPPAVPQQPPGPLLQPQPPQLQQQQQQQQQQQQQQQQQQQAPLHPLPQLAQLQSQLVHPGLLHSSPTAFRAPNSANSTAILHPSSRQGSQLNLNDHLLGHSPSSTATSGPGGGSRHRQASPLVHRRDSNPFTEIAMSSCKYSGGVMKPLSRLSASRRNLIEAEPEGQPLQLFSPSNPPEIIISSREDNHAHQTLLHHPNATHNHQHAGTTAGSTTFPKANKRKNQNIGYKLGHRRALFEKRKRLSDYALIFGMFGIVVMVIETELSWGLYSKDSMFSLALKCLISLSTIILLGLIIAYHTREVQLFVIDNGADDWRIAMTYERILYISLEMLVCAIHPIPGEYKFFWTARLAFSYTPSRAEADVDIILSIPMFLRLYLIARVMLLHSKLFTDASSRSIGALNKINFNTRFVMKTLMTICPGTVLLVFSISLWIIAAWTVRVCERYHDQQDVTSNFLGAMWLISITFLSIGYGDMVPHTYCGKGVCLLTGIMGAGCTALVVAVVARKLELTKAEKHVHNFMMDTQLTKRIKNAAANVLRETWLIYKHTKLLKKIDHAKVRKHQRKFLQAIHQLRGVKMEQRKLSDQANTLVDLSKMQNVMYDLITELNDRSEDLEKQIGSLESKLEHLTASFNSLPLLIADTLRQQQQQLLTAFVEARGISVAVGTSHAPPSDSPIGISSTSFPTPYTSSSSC

HEK-293T [2] = assay: Cytotoxicity against HEK293T cells expressing rat SK3 assessed as cell viability at 10 uM after 48 hrs by MTT assay; type: cell-based; conditions: human
[3] = molecular target: Small conductance calcium-activated potassium channel protein 3 (Rattus norvegicus) (UniProt P70605); assay: Inhibition of recombinant rat SK3 expressed in HEK293T cells assessed as decrease in channel current amplitude at 0 mV holding potential at 10 uM measured for 3 mins by patch clamp assay relative to control; type: cell-based; conditions: HEK-293T
HEK-293T [4] = assay: Effect on SK3 deficient HEK293T cell migration at 100 nM after 15 hrs by DAPI staining; type: functional, cell-based; conditions: Homo sapiens
[5] = Solubility of the compound in water; type: physicochemical

Row | SMILES | inhibition [1] [%] | Activity (HEK-293T [2]) | inhibition [3] [%] | Activity (HEK-293T [4]) | solubility [5] [µM]
1 | CCCCCCCCCCCCCCCCOCC(COP(=O)(O)OC1O[C@H](CO[C@H]2O[C@H](CO)[C@H](O)[C@H](O)[C@H]2O)[C@@H](O)[C@H](O)[C@H]1O)OC.CCN(CC)CC (some centres not stated) | 40 | Non-toxic | 65.5 | inactive | 
2 | CCCCCCCCCCCCCCCCOCC(COP(=O)(O)OC1O[C@H](CO)[C@@H](O[C@H]2O[C@H](CO)[C@@H](O)[C@H](O)[C@H]2O)[C@H](O)[C@H]1O)OC.CCN(CC)CC (some centres not stated) | 40 | Non-toxic | 60 | inactive | 
3 | CCCCCCCCCCCCCCCCOCC(CO[C@H]1O[C@H](CO)[C@@H](O[C@@H]2O[C@H](CO)[C@H](O)[C@H](O)[C@H]2O)[C@H](O)[C@H]1O)OC (some centres not stated) | 40 | Non-toxic | 73.2 | inactive | 9 (≈ 5.89 µg/mL)
4 | CCCCCCCCCCCCCCCCOCC(COP(=O)(O)OC1O[C@H](CO)[C@@H](O[C@@H]2O[C@H](CO)[C@H](O)[C@H](O)[C@H]2O)[C@H](O)[C@H]1O)OC.CCN(CC)CC (some centres not stated) | 40 | Non-toxic | 69.2 | inactive | 16
5 | CCCCCCCCCCCCCCCCOCC(COP(=O)(O)O[C@H]1O[C@H](CO)[C@@H](O[C@H]2O[C@H](CO)[C@@H](O)[C@H](O)[C@H]2O)[C@H](O)[C@H]1O)OC.CCN(CC)CC (some centres not stated) | 40 | Non-toxic | 70.8 | inactive | 
